“And” between values parts separate entries of the source, which are not always exact repeats. Equal entries are not always repeated. Toxic doses and inconclusive results are not listed. Rule for the calls: active = survival T/C of 150% or more; inactive = T/C below 125% in these data.
Tested on: CD2F1 mice, L1210 leukemia ip, survival T/C
Test: NCI In Vivo Anticancer Drug Screen. Data for tumor model L1210 Leukemia (intraperitoneal) in CD2F1 (CDF1) mice
Settings: endpoint: mean survival time, higher = longer survival
Description: The antitumor activity of compounds was measured in mice bearing transplantable tumors. Survival or tumor size were measured and the results are expressed as the measurement made in the treated group (T) divided by the measurement made in the vehicle treated control group (C). The tumor model used in this assay is L1210 Leukemia (intraperitoneal) in CD2F1 (CDF1) mice

[1] = dose: 50.0 mg/kg/injection, schedule: Q01DX009 (ip), vehicle: saline with Tween-80
[2] = dose: 100.0 mg/kg/injection, schedule: Q01DX009 (ip), vehicle: saline with Tween-80
[3] = dose: 100.0 mg/kg/injection, schedule: Q04DX003 (ip), vehicle: saline with Tween-80
[4] = dose: 50.0 mg/kg/injection, schedule: Q04DX003 (ip), vehicle: saline with Tween-80
[5] = dose: 200.0 mg/kg/injection, schedule: Q01DX009 (ip), vehicle: saline with Tween-80
[6] = dose: 400.0 mg/kg/injection, schedule: Q04DX003 (ip), vehicle: saline with Tween-80
[7] = dose: 200.0 mg/kg/injection, schedule: Q04DX003 (ip), vehicle: saline with Tween-80

Measured: T/C

CCN(CC)CC(=O)Nc1c(C)cccc1C
inactive: dose: 25.0 mg/kg/injection, schedule: Q01DX009 (ip), vehicle: saline with Tween-80 95 % of control | [1] 95 % of control | [2] 89 % of control | [3] 95 % of control

CCCCCCCCCCCC(=O)NC(=S)Nc1cc(Cl)ccc1Cl
inactive: dose: 50.0 mg/kg/injection, schedule: Q01DX001 (ip), vehicle: saline with Tween-80 89 % of control | [4] 92 % of control | dose: 100.0 mg/kg/injection, schedule: Q01DX001 (ip), vehicle: saline with Tween-80 89 % of control | [2] 86 % of control and 94 % of control | dose: 100.0 mg/kg/injection, schedule: Q04DX002 (ip), vehicle: saline with Tween-80 98 % of control | [3] 92 % of control | dose: 200.0 mg/kg/injection, schedule: Q01DX001 (ip), vehicle: saline with Tween-80 92 % of control | [5] 86 % of control and 92 % of control | dose: 200.0 mg/kg/injection, schedule: Q04DX002 (ip), vehicle: saline with Tween-80 98 % of control | dose: 400.0 mg/kg/injection, schedule: Q04DX002 (ip), vehicle: saline with Tween-80 98 % of control | [6] 86 % of control

CC(C)(C)CC(C)(C)c1ccc(OCCOc2ccc(S(=O)(=O)O)cc2[N+](=O)[O-])cc1
inactive: dose: 100.0 mg/kg/injection, schedule: Q01DX001 (ip), vehicle: saline 102 % of control | dose: 200.0 mg/kg/injection, schedule: Q01DX001 (ip), vehicle: saline 102 % of control | dose: 400.0 mg/kg/injection, schedule: Q01DX001 (ip), vehicle: saline 98 % of control

O=C(CNC(=O)Nc1cccc(C(F)(F)F)c1)N/N=C/c1cccc([N+](=O)[O-])c1
inactive: [1] 96 % of control | [2] 88 % of control | [5] 92 % of control

CC(=O)ON1C(=O)c2cccc3cccc(c23)C1=O
inactive: [1] 96 % of control | [2] 102 % of control

CCOC(=O)c1cc(C)nc2c(Cl)cc(Cl)cc12
inactive: [2] 87 % of control | [3] 87 % of control | [5] 87 % of control | [7] 88 % of control | [6] 86 % of control

COC(=O)C1C(O)C(C)C(O)C(C)/C=C\C=C(C)C(=O)Nc2c(C)c(OC(C)=O)c3c(c2O)C(=O)C(C)=C2OCOC(=C23)C(C)=CC(C)(O)C(O)C(C)C1O (centres undefined)
inactive: [4] 95 % of control | [3] 98 % of control | [7] 92 % of control

COc1ccc(NC(=O)CC(C)(C)C(=O)O)cc1
inactive: [3] 101 % of control | [7] 100 % of control | [6] 103 % of control

O=[N+]([O-])C(CO)(CO)CO
inactive: dose: 100.0 mg/kg/injection, schedule: Q01DX009 (ip), vehicle: saline 98 % of control | dose: 200.0 mg/kg/injection, schedule: Q01DX009 (ip), vehicle: saline 96 % of control | dose: 400.0 mg/kg/injection, schedule: Q01DX009 (ip), vehicle: saline 104 % of control

COc1cc2c(cc1O)CCCCC2O (centres undefined)
inactive: dose: 50.0 mg/kg/injection, schedule: Q01DX009 (ip), vehicle: other 107 % of control | dose: 100.0 mg/kg/injection, schedule: Q01DX009 (ip), vehicle: other 100 % of control | dose: 200.0 mg/kg/injection, schedule: Q01DX009 (ip), vehicle: other 92 % of control

CCCC(C)C/C(C)=C/C(C)(C)C(CC(=O)N1CCOCC1)C(=O)O (centres undefined)
inactive: [1] 95 % of control | [2] 93 % of control | [3] 100 % of control | [7] 98 % of control

C#CCCCOC(=O)Nc1ccccc1
inactive: dose: 100.0 mg/kg/injection, schedule: Q04DX003 (ip), vehicle: Klucel (hydroxypropylcellulose) (HPC) 97 % of control | dose: 200.0 mg/kg/injection, schedule: Q04DX003 (ip), vehicle: Klucel (hydroxypropylcellulose) (HPC) 95 % of control

BrC1(Br)C2CCCCCCC21 (centres undefined)
inactive: [2] 91 % of control | [3] 87 % of control | [5] 87 % of control | [7] 98 % of control | [6] 96 % of control

CC(=O)OC1(C)C=C/C(=N\S(=O)(=O)c2ccc(C)cc2)c2ccccc21 (centres undefined)
inactive: [3] 95 % of control | [7] 97 % of control | [6] 95 % of control
